The text below walks through data of publication PMC3945819, “Ligand-Dependent Dynamics of the Active-Site Lid in Bacterial Dimethylarginine Dimethylaminohydrolase” (Biochemistry, 2014).

The target of data set [1] is T1, DM-PaDDAH (Arg40Glu/Arg98His double mutant PaDDAH) (Pseudomonas aeruginosa, UniProt Q9I4E3, R40E/R98H).
T1 construct: the 254 residue DM-PaDDAH; polyhistidine (cleaved yes); made in house; host or cells: Escherichia coli BL21 (DE3)
T1 sequence (Q9I4E3 1-254 R40E/R98H): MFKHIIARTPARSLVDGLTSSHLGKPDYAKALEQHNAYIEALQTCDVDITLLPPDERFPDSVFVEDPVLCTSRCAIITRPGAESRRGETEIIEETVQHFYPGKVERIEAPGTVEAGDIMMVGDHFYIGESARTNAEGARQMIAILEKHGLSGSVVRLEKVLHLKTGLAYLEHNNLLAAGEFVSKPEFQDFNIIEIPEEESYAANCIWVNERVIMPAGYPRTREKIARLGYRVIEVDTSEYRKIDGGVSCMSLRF
The data set is described as follows: NMR 15N,1H-HSQC ligand titration of DM-PaDDAH. The note with it: for binding of byproduct to the protein by NMR titration: separate NMR titrations. The format is binding. The procedure: (§1) For NMR measurements, the protein samples were prepared at 0.8 mM concentration (for resonance assignments and relaxation measurements) or 0.3 mM (for ligand titrations) in buffer A, supplemented with 10% v/v D2O. Saturating concentrations of L-citrulline were included in the bound state samples: 15 mM for DM-PaDDAH and 1.0 mM for TM-PaDDAH. A variety of NMR spectrometers were used during this work: resonance assignments were obtained from 3D triple resonance data sets (HNCA, HNCACB, CBCACONH, HNCO, HN(CA)CO)[12] obtained at either 600 or 700 MHz ^1H frequency. Two-dimensional ^15N, ^1H-HSQC experiments to monitor ligand binding were recorded using a 700 MHz instrument. ^15N relaxation measurements[13],[14] were performed at both 600 and 800 MHz. The majority of the data sets were recorded using a cryogenically cooled triple resonance probe, with the sample temperature maintained at a calibrated 25 °C. The pulse sequences employed H2O-selective “flip-back” pulses and WATERGATE to minimize the effects of H^N-resonance cross-saturation.[15],[16] Ligand-induced chemical shift perturbations differences for ligand titrations were computed using the formula Δδ = [(Δδ^1H^N)^2 + (Δδ^15N/5)^2]^1/2.

Data set [2] has as its target T2, MDCC-Ser20Cys DM-PaDDAH (fl-DM-PaDDAH) (Pseudomonas aeruginosa, UniProt Q9I4E3, R40E/R98H/S20C).
T2 construct: the 254 residue DM-PaDDAH; polyhistidine (cleaved yes); made in house; host or cells: Escherichia coli BL21 (DE3)
T2 sequence (Q9I4E3 1-254 S20C/R40E/R98H): T1 sequence (Q9I4E3 1-254 R40E/R98H) with S20C
The data set is described as follows: Stopped-flow fluorescence binding kinetics with fl-DM-PaDDAH. The procedure: (§2) Stopped-flow experiments were carried out in buffer A at 25 °C using a HiTech SF61 DX2 stopped-flow instrument equipped with a Xe/Hg lamp (TgK Scientific, UK). MDCC fluorescence was excited at 436 nm, and emission was detected by a photomultiplier after a 455 nm cutoff filter (Schott glass). Protein (1 μM) was mixed with the ligand (ADMA or L-citrulline) at various concentrations up to 4 mM. In the mixing cell, concentrations were half these. Each fluorescence time course was fitted to a single exponential function [drawing 1] with the observed first-order rate constant, kobs, and maximum fluorescence change, ΔFmax.
(§3) For mixing L-citrulline with MDCC-Ser20Cys TM-PaDDAH (fl-TM-PaDDAH), the dependence of kobs on L-citrulline concentration ([L-cit]) was linearly fitted for the association reaction: [drawing 2] [drawing 3] For the mixing of L-citrulline with MDCC-Ser20Cys DM-PaDDAH (fl-DM-PaDDAH) conversion of the substrate to products is included, using this reaction scheme: [drawing 4] [drawing 5] where kcat is the rate constant for the conversion of the enzyme–substrate complex to dissociated products. Under the pseudo-first-order conditions of the experiment, where the change in fluorescence was attributed to the formation of the fl-DM-PaDDAH/ADMA complex, the dependence of kobs on ADMA concentration was fitted to a straight-line graph: [drawing 6]

The target of a further data set is T3, MDCC-Ser84Cys TM-PaDDAH (Pseudomonas aeruginosa, UniProt Q9I4E3, C249S/R40E/R98H/S84C).
T3 construct: polyhistidine (cleaved yes); made in house; host or cells: Escherichia coli BL21 (DE3)
T3 sequence (Q9I4E3 1-254 R40E/S84C/R98H/C249S): T1 sequence (Q9I4E3 1-254 R40E/R98H) with S84C, C249S
The experiment in a line: MDCC fluorescence titration, Ser84Cys variant. The format is binding. The note with it: static MDCC fluorescence titration, 25 °C, buffer A; fluorescence decreased; read-out: equilibrium dissociation constant. As for the experimental part:
(§4) DM- or TM-PaDDAH constructs were mutated to contain an additional, solvent-exposed Cys residue at residue positions corresponding to Thr19, Ser 20, Ser84, and Asp244. Following expression, the purified proteins were each incubated in buffer A with 1 mM dithiothreitol (DTT) for 0.5 h. The sample was then passed through a desalting PD-10 column (GE Healthcare) in buffer A and concentrated to 100 μM. N-[2-(1-Maleimidyl)ethyl]-7-(diethylamino)coumarin-3-carboxamide (MDCC)[32] dissolved in DMF (20 mM) was added to a 2-fold excess, and the solution was incubated for 1 h. The reaction mixture was passed again through a fresh desalting column to remove unreacted label. The labeled protein concentration was measured by spectrophotometry (ε430 (MDCC) = 46 800 M^–1 cm^–1, ε280(MDCC) = 7470 M^–1 cm^–1, ε280(PaDDAH) = 18 910 M^–1 cm^–1). Formation of the product was assessed by electrospray ionization mass spectrometry.
(§5) PaDDAH fluorescence spectra were measured at 25 °C on an FP-6300 spectrofluorometer (Jasco Ltd.) in buffer A. MDCC fluorescence was excited at 430 nm and emission was recorded at 476 nm. The change in fluorescence emission intensity with ligand concentration was fit to a 1:1 binding isotherm using nonlinear least-squares Python code written in-house.

In data set [3] the target is T4, TM-PaDDAH (Arg40Glu/Arg98His/Cys249Ser triple mutant PaDDAH) (Pseudomonas aeruginosa, UniProt Q9I4E3, C249S/R40E/R98H).
T4 construct: polyhistidine (cleaved yes); made in house; host or cells: Escherichia coli BL21 (DE3)
T4 sequence (Q9I4E3 1-254 R40E/R98H/C249S): T1 sequence (Q9I4E3 1-254 R40E/R98H) with C249S
The experiment in a line: NMR 15N,1H-HSQC ligand titration of TM-PaDDAH. The format is binding. The note with it: NMR peak intensity titration (Gly24, Glu158, Lys159), 0.3 mM TM-PaDDAH, 25 °C; read-out: dissociation constant KD^(TM/L-cit). As for the experimental part: as §1

For another data set, the target named is wild-type PaDDAH. To be noted: wild-type protein; read-out: Ki^(L-cit); cited from earlier work.
The target in data set [4] is T5, MDCC-Ser20Cys TM-PaDDAH (fl-TM-PaDDAH) (Pseudomonas aeruginosa, UniProt Q9I4E3, C249S/R40E/R98H/S20C).
T5 construct: polyhistidine (cleaved yes); made in house; host or cells: Escherichia coli BL21 (DE3)
T5 sequence (Q9I4E3 1-254 S20C/R40E/R98H/C249S): T1 sequence (Q9I4E3 1-254 R40E/R98H) with S20C, C249S
The experiment in a line: MDCC fluorescence titration, Ser20Cys variant. The format is binding. As for the experimental part:
as §4, §5

Data set [5] concerns the target T5, MDCC-Ser20Cys TM-PaDDAH (fl-TM-PaDDAH). The experiment in a line: Stopped-flow fluorescence binding kinetics with fl-TM-PaDDAH. As for the experimental part:
as §2, §3

A further data set addresses T6, MDCC-Asp244Cys TM-PaDDAH (Pseudomonas aeruginosa, UniProt Q9I4E3, C249S/D244C/R40E/R98H).
T6 construct: polyhistidine (cleaved yes); made in house; host or cells: Escherichia coli BL21 (DE3)
T6 sequence (Q9I4E3 1-254 R40E/R98H/D244C/C249S): T1 sequence (Q9I4E3 1-254 R40E/R98H) with D244C, C249S
The data set is described as follows: MDCC fluorescence titration, Asp244Cys variant. The note with it: static MDCC fluorescence titration, 25 °C, buffer A; fluorescence decreased; read-out: equilibrium dissociation constant. The format is binding. The procedure:
as §4, §5

The next data set deals with T7, MDCC-Thr19Cys TM-PaDDAH (Pseudomonas aeruginosa, UniProt Q9I4E3, C249S/R40E/R98H/T19C).
T7 construct: polyhistidine (cleaved yes); made in house; host or cells: Escherichia coli BL21 (DE3)
T7 sequence (Q9I4E3 1-254 T19C/R40E/R98H/C249S): T1 sequence (Q9I4E3 1-254 R40E/R98H) with T19C, C249S
The experiment in a line: MDCC fluorescence titration, Thr19Cys variant. The format is binding. The note with it: static MDCC fluorescence titration, 25 °C, buffer A; fluorescence decreased; read-out: equilibrium dissociation constant. The procedure:
as §4, §5

Another data set concerns the target Cys249 (UniProt position 249, DGGVSCMSLRF). The note with it: ligand-free (absence of ligand); cited from earlier work.
Another data set deals with T8, TM-PaDDAH (Pseudomonas aeruginosa, UniProt Q9I4E3, C249S/R40E/R98H).
T8 construct: polyhistidine (cleaved yes); made in house; host or cells: Escherichia coli BL21 (DE3)
T8 sequence (Q9I4E3 1-254 R40E/R98H/C249S): T1 sequence (Q9I4E3 1-254 R40E/R98H) with C249S
The experiment in a line: Substrate conversion by TM-PaDDAH observed by 1D 1H NMR. The format is biochemical. To be noted: conversion of ADMA to DMA and L-citrulline, high TM-PaDDAH concentration, over hours. The procedure:
as §1

In the next data set the test system is unmodified DM-PaDDAH. The note with it: estimated previously for unmodified DM-PaDDAH; cited from earlier work.

Numbering of substitutions follows the chain as printed. Entries after “also recorded” stand apart in the source; their conditions may differ.

As to `CN` [methylamine], the “binding of byproduct to the protein by NMR titration” value in data set [1] is recorded as “did not detectably bind”.

`NC(=O)NCCC[C@H](N)C(=O)O` [L-citrulline]: the “fluorescence signal for binding to fl-DM-PaDDAH” value in [2] is “no signal for binding”. For the same molecule, the Kd at MDCC-Ser84Cys TM-PaDDAH is 15.7 ± 2.8 µM; in data set [3], 3.5 ± 1.5 µM; in [4] (static MDCC fluorescence titration, 25 °C, buffer A, fluorescence increased, read-out: equilibrium dissociation constant) it was 7.2 ± 1.6 µM; in [1] (NMR chemical shift titration, 0.3 mM DM-PaDDAH, 1:1 model, buffer A pH 7.0, 25 °C, read-out: dissociation constant KD^(DM/L-cit)), 3600 ± 100 µM; in [5] (from stopped-flow binding kinetics, read-out: predicted equilibrium dissociation constant KD^(TM/L-cit) (= koff/kon)), 8.4 µM; at MDCC-Asp244Cys TM-PaDDAH it was 23.5 ± 2.7 µM. Further, on MDCC-Thr19Cys TM-PaDDAH, the Kd was 10.8 ± 1.1 µM. The Ki (as a rule, the equilibrium dissociation constant of an inhibitor or competing ligand from its target) on wild-type PaDDAH was 8400 µM. In addition, the koff was approximately 500 s⁻¹ in data set [1] (from NMR KD and assumed kon similar to kon^(TM/L-cit) and kon^(DM/ADMA), read-out: koff^(DM/L-cit) predicted); 0.86 s⁻¹ in [5] (stopped-flow, linear fit of kobs vs concentration, 25 °C, read-out: koff^(TM/L-cit)). Besides, in [5] (stopped-flow, linear fit of kobs vs concentration, 25 °C, read-out: kon^(TM/L-cit)), the kon was determined as 100000 M⁻¹ s⁻¹.

Regarding “Dimethylarginine dimethylaminohydrolase (PaDDAH) (Pseudomonas aeruginosa)”, the pKa (usually the pH at which an ionisable group is half protonated) with Cys249 was 8.8.

As to `CN(C)C(=N)NCCCC(N)C(=O)O` (stereo not drawn) [ADMA, asymmetric N^η,N^η-dimethylarginine], in data set [2] (KD^(DM/ADMA) versus KD^(DM/L-cit)), the “binding tighter than for the reaction product L-citrulline” value was determined as 30 fold. Further, the “koff^(DM/ADMA)” value in [2] (assuming kcat = 0.5 s^–1) is on record as 2.0 s^–1. For the same molecule, the “kon^(DM/ADMA)” value in data set [2] (stopped-flow, linear fit of kobs vs concentration, 25 °C) is reported as 1.8 × 10^5 M^–1 s^–1. Besides, on TM-PaDDAH, the “catalytic activity of the mutant enzyme” value is approximately 0.04 h^–1. For the same molecule, the “fluorescence response / binding of substrate to fl-TM-PaDDAH” value in data set [4] (low protein concentrations of fluorescence experiments) is “no fluorescence change; also recorded: no evidence of substrate binding or turnover”. Moreover, the kcat in the data set on unmodified DM-PaDDAH is recorded as 0.5 s^–1.

With `CNC` [dimethylamine], the “binding of byproduct to the protein by NMR titration” value in data set [1] is “did not detectably bind”.
